Measured values from patent US9884842B2, “Combretastatin analogs” (The Board of Trustees of the University of Arkansas, priority 2013, dated 2018).

Assays:
[1] = test system: OVCAR-5; experiment: NCI growth inhibition and cytotoxicity screen, Ovarian Cancer panel; details: Homo sapiens; for GI50: OVCAR-5; for CC50: OVCAR-5, read-out: LC50
[2] = test system: HOP-92; experiment: NCI growth inhibition and cytotoxicity screen, Lung Cancer panel; details: Homo sapiens; for GI50: HOP-92; for CC50: HOP-92, read-out: LC50
[3] = test system: A498; experiment: NCI growth inhibition and cytotoxicity screen, Renal Cancer panel; details: Homo sapiens; for GI50: A498; for CC50: A498, read-out: LC50
[4] = test system: M14; experiment: NCI growth inhibition and cytotoxicity screen, Melanoma panel; details: Homo sapiens; for GI50: M14; for CC50: M14, read-out: LC50
[5] = test system: SN12C; experiment: NCI growth inhibition and cytotoxicity screen, Renal Cancer panel; details: Homo sapiens; for CC50: read-out: LC50
[6] = test system: OVCAR-8; experiment: NCI growth inhibition and cytotoxicity screen, Ovarian Cancer panel; details: Homo sapiens; for GI50: OVCAR-8; for CC50: OVCAR-8, read-out: LC50
[7] = test system: K-562; experiment: NCI growth inhibition and cytotoxicity screen, Leukemia panel; details: Homo sapiens; for GI50: K562; for CC50: K562, read-out: LC50
[8] = test system: HCT-15; experiment: NCI growth inhibition and cytotoxicity screen, Colon Cancer panel; details: Homo sapiens; for GI50: HCT-15; for CC50: HCT-15, read-out: LC50
[9] = test system: NCI-H226; experiment: NCI growth inhibition and cytotoxicity screen, Lung Cancer panel; details: Homo sapiens; for GI50: NCI-H226; for CC50: NCI-H226, read-out: LC50
[10] = test system: HL-60(TB); experiment: cells; details: Homo sapiens; for GI50: HL-60; for CC50: HL-60, read-out: LC50
[11] = test system: SNB-75; experiment: NCI growth inhibition and cytotoxicity screen, CNS Cancer panel; details: Homo sapiens; for GI50: SNB-75; for CC50: SNB-75, read-out: LC50
[12] = test system: NCI-H460; experiment: NCI growth inhibition and cytotoxicity screen, Lung Cancer panel; details: Homo sapiens; for GI50: NCI-H460; for CC50: NCI-H460, read-out: LC50
[13] = test system: HOP-62; experiment: as above; details: Homo sapiens; for GI50: HOP-62; for CC50: HOP-62, read-out: LC50
[14] = test system: SK-MEL-28; experiment: NCI growth inhibition and cytotoxicity screen, Melanoma panel; details: Homo sapiens; for GI50: SK-MEL-28; for CC50: SK-MEL-28, read-out: LC50
[15] = test system: MDA-MB-231/ATCC; experiment: NCI growth inhibition and cytotoxicity screen, Breast Cancer panel; details: Homo sapiens; for GI50: MDA-MB-231; for CC50: MDA-MB-231, read-out: LC50
[16] = test system: U251; experiment: NCI growth inhibition and cytotoxicity screen, CNS Cancer panel; details: Homo sapiens; for GI50: U-251; for CC50: U-251, read-out: LC50
[17] = test system: TK-10; experiment: NCI growth inhibition and cytotoxicity screen, Renal Cancer panel; details: Homo sapiens; for GI50: TK-10; for CC50: TK-10, read-out: LC50
[18] = test system: 786-0; experiment: as above; details: Homo sapiens; for GI50: 786-0; for CC50: 786-0, read-out: LC50
[19] = test system: SW-620; experiment: NCI growth inhibition and cytotoxicity screen, Colon Cancer panel; details: Homo sapiens; for GI50: SW-620; for CC50: SW-620, read-out: LC50
[20] = test system: OVCAR-4; experiment: NCI growth inhibition and cytotoxicity screen, Ovarian Cancer panel; details: Homo sapiens; for GI50: OVCAR-4; for CC50: OVCAR-4, read-out: LC50
[21] = test system: HT29; experiment: NCI growth inhibition and cytotoxicity screen, Colon Cancer panel; details: Homo sapiens; for GI50: HT-29; for CC50: HT-29, read-out: LC50
[22] = test system: SF-539; experiment: NCI growth inhibition and cytotoxicity screen, CNS Cancer panel; details: Homo sapiens; for GI50: SF-539; for CC50: SF-539, read-out: LC50
[23] = test system: SK-MEL-2; experiment: NCI growth inhibition and cytotoxicity screen, Melanoma panel; details: Homo sapiens; for GI50: SK-MEL-2; for CC50: SK-MEL-2, read-out: LC50
[24] = test system: RPMI-8226; experiment: NCI growth inhibition and cytotoxicity screen, Leukemia panel; details: Homo sapiens; for GI50: RPMI-8226; for CC50: RPMI-8226, read-out: LC50
[25] = test system: MALME-3M; experiment: NCI growth inhibition and cytotoxicity screen, Melanoma panel; details: Homo sapiens; for CC50: read-out: LC50
[26] = test system: UO-31; experiment: NCI growth inhibition and cytotoxicity screen, Renal Cancer panel; details: Homo sapiens; for CC50: UO-31, read-out: LC50
[27] = test system: A549/ATCC; experiment: NCI growth inhibition and cytotoxicity screen, Lung Cancer panel; details: Homo sapiens; for GI50: A549; for CC50: A549, read-out: LC50
[28] = test system: UACC-62; experiment: NCI growth inhibition and cytotoxicity screen, Melanoma panel; details: Homo sapiens; for GI50: UACC-62; for CC50: UACC-62, read-out: LC50
[29] = test system: CAKI-1; experiment: NCI growth inhibition and cytotoxicity screen, Renal Cancer panel; details: Homo sapiens; for GI50: CAKI-1; for CC50: CAKI-1, read-out: LC50
[30] = test system: LOX-IMVI; experiment: NCI growth inhibition and cytotoxicity screen, Melanoma panel; details: Homo sapiens; for CC50: read-out: LC50
[31] = test system: SF-295; experiment: NCI growth inhibition and cytotoxicity screen, CNS Cancer panel; type: cell-based; details: Homo sapiens, Table 2, cell line SF-295 (CNS Cancer); for CC50: read-out: LC50 (the source's name)

COc1cc(OC)cc(/C(C#N)=C/c2cnc3ccccc3c2)c1 [PNR-4-85, (Z)-3-(quinolin-3-yl)-2-(3,5-dimethoxyphenyl)acrylonitrile]
GI50 [1]: 587 nM
CC50 [1]: > 100000 nM
GI50 [2]: 3090 nM
CC50 [2]: > 100000 nM
GI50 [3]: 333 nM
CC50 [3]: > 100000 nM
GI50 [4]: 310 nM
CC50 [4]: > 100000 nM
GI50 [5]: 661 nM
CC50 [5]: > 100000 nM
GI50 [6]: 584 nM
CC50 [6]: > 100000 nM
GI50 [7]: 243 nM
CC50 [7]: > 100000 nM
GI50 [8]: 455 nM
CC50 [8]: > 100000 nM
GI50 [9]: 62200 nM
CC50 [9]: > 100000 nM
GI50 [10]: 234 nM
CC50 [10]: > 100000 nM
GI50 [11]: 224 nM
CC50 [11]: > 100000 nM
GI50 [12]: 362 nM
CC50 [12]: > 100000 nM
GI50 [13]: 793 nM
CC50 [13]: > 100000 nM
GI50 [14]: 1400 nM
CC50 [14]: > 100000 nM
GI50 [15]: 1150 nM
CC50 [15]: > 100000 nM
GI50 [16]: 374 nM
CC50 [16]: > 100000 nM
GI50 [17]: 17700 nM
CC50 [17]: > 100000 nM
GI50 [18]: 484 nM
CC50 [18]: > 100000 nM
GI50 [19]: 352 nM
CC50 [19]: > 100000 nM
GI50 [20]: 1730 nM
CC50 [20]: > 100000 nM
GI50 [21]: 362 nM
CC50 [21]: > 100000 nM
GI50 [22]: 289 nM
CC50 [22]: > 100000 nM
GI50 [23]: 709 nM
CC50 [23]: > 100000 nM
GI50 [24]: 332 nM
CC50 [24]: > 100000 nM
GI50 [25]: 635 nM
CC50 [25]: > 100000 nM
CC50 [26]: > 100000 nM
GI50 [27]: 556 nM
CC50 [27]: > 100000 nM
GI50 [28]: 357 nM
CC50 [28]: > 100000 nM
GI50 [29]: 223 nM
CC50 [29]: > 100000 nM
GI50 [30]: 672 nM
CC50 [30]: > 100000 nM
GI50 [31]: 243 nM
CC50 [31]: > 100000 nM

COc1cc(/C(C#N)=C/c2cnc3ccccc3c2)cc(OC)c1OC [PNR-5-10, (Z)-3-(quinolin-3-yl)-2-(3,4,5-trimethoxyphenyl)acrylonitrile]
GI50 [1]: 3940 nM
CC50 [1]: > 100000 nM
GI50 [2]: 403 nM
CC50 [2]: > 100000 nM
GI50 [3]: 678 nM
CC50 [3]: > 100000 nM
GI50 [4]: 540 nM
CC50 [4]: > 100000 nM
GI50 [5]: 1940 nM
CC50 [5]: > 100000 nM
GI50 [6]: 3410 nM
CC50 [6]: > 100000 nM
GI50 [7]: 444 nM
CC50 [7]: > 100000 nM
GI50 [8]: 1080 nM
CC50 [8]: > 100000 nM
GI50 [9]: > 100000 nM
CC50 [9]: > 100000 nM
GI50 [10]: 329000 nM
CC50 [10]: > 100000 nM
GI50 [11]: 1490 nM
CC50 [11]: > 100000 nM
GI50 [12]: 2050 nM
CC50 [12]: > 100000 nM
GI50 [13]: 10300 nM
CC50 [13]: > 100000 nM
GI50 [14]: 3270 nM
CC50 [14]: > 100000 nM
GI50 [15]: 2830 nM
CC50 [15]: > 100000 nM
GI50 [16]: 1700 nM
CC50 [16]: > 100000 nM
GI50 [17]: 2550 nM
CC50 [17]: > 100000 nM
GI50 [18]: 6290 nM
CC50 [18]: > 100000 nM
GI50 [19]: 420 nM
CC50 [19]: > 100000 nM
GI50 [20]: 13800 nM
CC50 [20]: > 100000 nM
GI50 [21]: 421 nM
CC50 [21]: > 100000 nM
GI50 [22]: 361 nM
CC50 [22]: > 100000 nM
GI50 [23]: 1050 nM
CC50 [23]: > 100000 nM
GI50 [24]: 2060 nM
CC50 [24]: > 100000 nM
GI50 [25]: 691 nM
CC50 [25]: > 100000 nM
GI50 ([26]; UO-31): 580 nM
CC50 [26]: > 100000 nM
GI50 [27]: 680 nM
CC50 [27]: > 100000 nM
GI50 [28]: 478 nM
CC50 [28]: > 100000 nM
GI50 [29]: 346 nM
CC50 [29]: > 100000 nM
GI50 [30]: 645 nM
CC50 [30]: > 100000 nM
GI50 [31]: 556 nM
CC50 [31]: > 100000 nM
